Source: patent publication US20260055141A1, “COMPOSITIONS AND METHODS FOR CONTROLLING FOOD INTAKE, ENERGY EXPENDITURE, AND BODY WEIGHT FOR THE TREATMENT OF OBESITY AND METABOLIC DISEASES” (The Trustees of the University of Pennsylvania, priority 2022, published 2026)
pKd: −log10 of the molar value. Where “and” joins values, the source holds several entries; their conditions need not be identical. Equal values may be shown once. Non-standard residues stand in square brackets, D forms with d. No end group written: not given here.

Key:
[1] = molecular target: T1, human GPR75 (372-540 aa region) (Homo sapiens, UniProt O95800); test: Surface Plasmon Resonance (SPR) binding at GPR75; settings: for Bmax ([Signal (RU)]): SPR fit; for pKd / kd / ka (1/(M*s)): SPR; for kon: read-out: ka (1/(M*s))
T1 construct: human GPR75 (372-540 aa region); purchased antibodies-online.com ABIN5709609
Experimental: SU75-36 binding at the human GPR75 (372-540 aa region; available on the world wide web at antibodies-online.com cat #ABIN5709609) was measured via a Nicoya Open SPR instrument using His-tagged GPR75 bound to an NTA-coated gold sensor (Nicoya cat #SEN-AU-100-10-NTA, range=4.08-204 μM) using HBSS (in-house) at 20 μL/min flow rate. Data was fit via a global, one-to-one model using Nicoya OpenSPR software.

[2] = 4th ventricle intracerebroventricular injection, food intake and body weight in DIO rats; assay type: in vivo, rat; settings: for food intake compared to control: SU75-36 20, 100 or 200 μg, SU75-37 20 μg, 60% HFD, 1, 3, 6, 24 h
Experimental: Adult male Sprague-Dawley rats (Charles River) were individually housed under a 12 h-light: 12 h-dark cycle in a temperature and humidity-controlled satellite vivarium and had ad libitum access to water and chow (5001, LabDiet) or a 60% high fat diet (HFD): D12492, Research Diets) and when applicable had ad libitum access to kaolin pellets (K50001, Research Diets). Rats were exposed to kaolin for at least 5 days prior to measuring kaolin consumption in pica testing. Except for studies conducted in the bioDAQ, for all feeding studies rats were housed in hanging wire cages to allow for accurate measurement of food spillage. Experiments were conducted under the National Institutes for Health Guide for the Care and Use of Laboratory Animals and all procedures were approved by the Institutional Animal Care and Use Committee at the University of Pennsylvania.
For cannula implantation, rats were anesthetized by intraperitoneal injection of a mixture containing ketamine (90 mg/kg, Butler Animal Health Supply), xylazine (2.7 mg/kg, Anased), and acepromazine (0.64 mg/kg, Butler Animal Health Supply) (KAX) and then placed into a stereotaxic apparatus. Each rat was stereotaxically implanted with a guide cannula (26-ga, Plastics One) aimed at the fourth ventricle (guide cannula coordinates: on midline. 2.5 mm anterior to occipital suture, 5.2 mm ventral to skull; internal cannula aimed 7.2 mm ventral to skull) or the lateral ventricle (guide cannula coordinates: 1.5 mm lateral to midline, 0.9 mm posterior to bregma. 1.8 mm ventral to skull; internal cannula aimed 3.8 mm ventral to skull). For all cannulas, dummies (no projection beyond guide) were inserted in the guide cannula and left until infusions were performed. For all surgeries, rats received post-operative temperature support and analgesia was provided immediately following surgery and for two post-operative days (2 mg/kg meloxicam).
For all studies measuring food intake following drug treatment, central injections were given at a volume of 2 μL using a Hamilton syringe terminating in an injector tip extending 2.0 mm beyond the guide cannula. For acute treatment days, rats were food deprived for 2 hours before the dark cycle and injections were done immediately prior to the dark cycle onset. Food and kaolin intake was measured 1, 3, 6, and 24 hours after injections were completed and food crumbs were weighed and accounted for between each timepoint. Body weight was measured during injections and 24 hours after. Injection treatments were organized in a counterbalanced, within-subjects design and separated by ≥72 h. […]
Rats were weighed at the beginning of the experiment and 24 hours after administration of the GPR75 inhibitor. The weight change of each rat after 24 hours was then calculated. […]

[3] = Lateral intraventricular injection in HEPES buffer, food intake and body weight in DIO rats; assay type: in vivo, rat; settings: lateral ventricle; for food intake compared to control: 60% HFD, 1, 3, 6, 24 h
Experimental: Diet induced obese (DIO) rats (n=4) were administered 150 μg/3 μL SU75-36 in a vehicle or in a HEPES buffer by lateral intraventricular injection and observed over 24 hours. One group of rats was administered a Vehicle of 50% DMSO in HEPES as a negative control. All rats were given ad libitum access to water and 60% HFD. […] (FIG. 10A). […] Rats were weighed at the beginning of the experiment and 24 hours after administration. The weight change of each rat after 24 hours was then calculated. […] (FIG. 10B). In a separate experiment, diet induced obese (DIO) rats (n=4) were administered 133 μg/2 μL SU75-37 in a HEPES buffer by lateral intraventricular injection and observed over 24 hours. One group of rats was administered a vehicle without a GPR75 inhibitor as a negative control. All rats were given ad libitum access to water and a 60% high fat diet (HFD). SU75-37 was optimized using an acetate salt precipitation rather than a TFA salt precipitation to maintain a neutral >4.5 pH in HEPES buffer solution. The food intake of each rat was observed 1, 3, 6, and 24 hours after administration. […] Rats were weighed at the beginning of the experiment and 24 hours after administration. The weight change of each rat after 24 hours was then calculated. […] (FIG. 11B).

[4] = Peripheral (IP) administration, food intake and body weight in DIO mice; assay type: in vivo, mouse; settings: for 24 h food intake: IP 0.5 and 5 mg/kg, male HFD fed mice (FIG. 12 legend)
Experimental: DIO mice were administered 0.5 mg/kg or 5.0 mg/kg of either SU75-36 or SU75-37 in a vehicle by […] injection and observed over 24 hours. One group of mice was administered a vehicle as a negative control. All mice were given ad libitum access to water and a 60% HFD. […] (FIGS. 12A and 12C). […] Mice were weighed at the beginning of the experiment and 24 hours after administration. The weight change of each mouse after 24 hours was then calculated. […] (FIGS. 12B and 12D) This experiment was then repeated for SU75-37 at a higher dose (10 mg/kg). […] (FIG. 13A).

[5] = His-tagged GPR75 on NTA sensor, HBSS, global one-to-one fit
[6] = 5 mg/kg peripheral injection, DIO mice, 60% HFD, 3 and 24 h

Substance: H[dS]QGTFTSDLSKYLEEEVREFIWLKNGGPSDVNTDRPGLLDLK-NH2 [SU75-36]
- Bmax ([Signal (RU)]) ([1]; curves at 10.2-102 μM peptide): 69.54 RU
- pKd [1, 5]: 5.11
- pKd ([1]; Nicoya OpenSPR software, one-to-one model, global fit): 5.11
- kd ([1]; one-to-one model, global fit): 0.00742 s⁻¹
- ka (1/(M*s)) ([1]; one-to-one model, global fit, listed as Drug 36): 956 M⁻¹ s⁻¹
- kon [1]: 956 M⁻¹ s⁻¹
- food intake compared to any of the other groups ([2]; 200 μg, 60% HFD): further decrease
- food intake compared to control [2]: significant decrease in food intake
- body weight change after 24 hours ([2]; any amount (20, 100, 200 μg), 60% HFD): significant decrease in weight
- food intake compared to any of the other groups ([3]; 150 μg/3 μL in HEPES buffer, DIO rats): further decrease
- food intake compared to control ([3]; 150 μg/3 μL in vehicle (50% DMSO in HEPES) or HEPES buffer, DIO rats): significant decrease in food intake
- food intake compared to control ([3]; 150 μg/3 μL in vehicle (50% DMSO in HEPES) or HEPES buffer, DIO rats, listed as 36): suppresses
- body weight change after 24 hours compared to any other of the groups ([3]; 150 μg/3 μL with HEPES buffer, DIO rats): further decrease
- body weight change after 24 hours ([3]; 150 μg/3 μL, DIO rats): significant decrease in weight
- food intake compared to control [4, 6]: significant decrease in food intake
- body weight change after 24 hours ([4]; 0.5 or 5.0 mg/kg peripheral injection, DIO mice): significant decrease in weight
- 24 h food intake [4]: suppresses

Substance: TFTSDLSKYLEEEVREFIWLKNGGPSDVNTDRPGLLDLK-NH2 [SU75-37]
- Bmax ([Signal (RU)]) ([1]; curve at 4.9 μM peptide): 3.80 RU
- Bmax ([Signal (RU)]) ([1]; curve at 4.93 μM peptide): 3.57 RU
- Bmax ([Signal (RU)]) ([1]; curve at 12.3 μM peptide, listed as Drug37): 11.98 RU and 9.39 RU
- Bmax ([Signal (RU)]) ([1]; curve at 24.65 μM peptide): 8.98 RU
- Bmax ([Signal (RU)]) ([1]; curve at 49.3 μM peptide, listed as Drug37): 47.66 RU and 51.69 RU
- Bmax ([Signal (RU)]) ([1]; curve at 92.4 μM peptide): 67.67 RU
- Bmax ([Signal (RU)]) ([1]; curve at 123.23 μM peptide): 110.32 RU
- pKd [1, 5]: 4.62
- ka (1/(M*s)) ([1]; one-to-one model, global fit): 592 M⁻¹ s⁻¹
- kd ([1]; one-to-one model, global fit): 0.0141 s⁻¹
- kon [1]: 592 M⁻¹ s⁻¹
- food intake compared to control [2]: significant decrease in food intake
- food intake compared to control ([3]; 133 μg/2 μL in HEPES buffer, acetate salt precipitation, DIO rats): significant decrease in food intake
- body weight change after 24 hours ([3]; 133 μg/2 μL in HEPES buffer, DIO rats): significant decrease in weight
- 24 h food intake ([3]; 150 μg/3 μL in HEPES buffer, male HFD fed rats (FIG. 11 legend)): suppresses
- food intake compared to control [4, 6]: significant decrease in food intake
- body weight change after 24 hours ([4]; IP 10 mg/kg, HFD fed mice): significant decrease in weight
- food intake compared to control ([4]; IP 10 mg/kg, HFD fed mice, 10 mg/kg): significant decrease in food intake
- food intake compared to control ([4]; IP 10 mg/kg, HFD fed mice, listed as 37, 10 mg/kg): suppresses
- 24 h food intake [4]: suppresses
